Read-outs that look alike come from different tables or passages of the source.
Assays:
[1] = Cytotoxicity Determination (CCK-8, without addition of virus); format: cell-based; settings: human
Summary of the method: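 HEp-2 cells were seeded at 1,500 cells/well one day before compound addition. Compounds were tested without virus in duplicate over 7 points from 100 μM in 1/2 steps, with 1% final DMSO, 5 days at 37 °C, 5% CO2. Viability was read by CCK-8 after 3-4 hours.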

[2] = biological target: recombinant RSV complex (Human respiratory syncytial virus A, UniProt P28887); test: RSV Polymerase Inhibition Assay; format: biochemical
Chain of recombinant RSV complex (P28887 whole entry): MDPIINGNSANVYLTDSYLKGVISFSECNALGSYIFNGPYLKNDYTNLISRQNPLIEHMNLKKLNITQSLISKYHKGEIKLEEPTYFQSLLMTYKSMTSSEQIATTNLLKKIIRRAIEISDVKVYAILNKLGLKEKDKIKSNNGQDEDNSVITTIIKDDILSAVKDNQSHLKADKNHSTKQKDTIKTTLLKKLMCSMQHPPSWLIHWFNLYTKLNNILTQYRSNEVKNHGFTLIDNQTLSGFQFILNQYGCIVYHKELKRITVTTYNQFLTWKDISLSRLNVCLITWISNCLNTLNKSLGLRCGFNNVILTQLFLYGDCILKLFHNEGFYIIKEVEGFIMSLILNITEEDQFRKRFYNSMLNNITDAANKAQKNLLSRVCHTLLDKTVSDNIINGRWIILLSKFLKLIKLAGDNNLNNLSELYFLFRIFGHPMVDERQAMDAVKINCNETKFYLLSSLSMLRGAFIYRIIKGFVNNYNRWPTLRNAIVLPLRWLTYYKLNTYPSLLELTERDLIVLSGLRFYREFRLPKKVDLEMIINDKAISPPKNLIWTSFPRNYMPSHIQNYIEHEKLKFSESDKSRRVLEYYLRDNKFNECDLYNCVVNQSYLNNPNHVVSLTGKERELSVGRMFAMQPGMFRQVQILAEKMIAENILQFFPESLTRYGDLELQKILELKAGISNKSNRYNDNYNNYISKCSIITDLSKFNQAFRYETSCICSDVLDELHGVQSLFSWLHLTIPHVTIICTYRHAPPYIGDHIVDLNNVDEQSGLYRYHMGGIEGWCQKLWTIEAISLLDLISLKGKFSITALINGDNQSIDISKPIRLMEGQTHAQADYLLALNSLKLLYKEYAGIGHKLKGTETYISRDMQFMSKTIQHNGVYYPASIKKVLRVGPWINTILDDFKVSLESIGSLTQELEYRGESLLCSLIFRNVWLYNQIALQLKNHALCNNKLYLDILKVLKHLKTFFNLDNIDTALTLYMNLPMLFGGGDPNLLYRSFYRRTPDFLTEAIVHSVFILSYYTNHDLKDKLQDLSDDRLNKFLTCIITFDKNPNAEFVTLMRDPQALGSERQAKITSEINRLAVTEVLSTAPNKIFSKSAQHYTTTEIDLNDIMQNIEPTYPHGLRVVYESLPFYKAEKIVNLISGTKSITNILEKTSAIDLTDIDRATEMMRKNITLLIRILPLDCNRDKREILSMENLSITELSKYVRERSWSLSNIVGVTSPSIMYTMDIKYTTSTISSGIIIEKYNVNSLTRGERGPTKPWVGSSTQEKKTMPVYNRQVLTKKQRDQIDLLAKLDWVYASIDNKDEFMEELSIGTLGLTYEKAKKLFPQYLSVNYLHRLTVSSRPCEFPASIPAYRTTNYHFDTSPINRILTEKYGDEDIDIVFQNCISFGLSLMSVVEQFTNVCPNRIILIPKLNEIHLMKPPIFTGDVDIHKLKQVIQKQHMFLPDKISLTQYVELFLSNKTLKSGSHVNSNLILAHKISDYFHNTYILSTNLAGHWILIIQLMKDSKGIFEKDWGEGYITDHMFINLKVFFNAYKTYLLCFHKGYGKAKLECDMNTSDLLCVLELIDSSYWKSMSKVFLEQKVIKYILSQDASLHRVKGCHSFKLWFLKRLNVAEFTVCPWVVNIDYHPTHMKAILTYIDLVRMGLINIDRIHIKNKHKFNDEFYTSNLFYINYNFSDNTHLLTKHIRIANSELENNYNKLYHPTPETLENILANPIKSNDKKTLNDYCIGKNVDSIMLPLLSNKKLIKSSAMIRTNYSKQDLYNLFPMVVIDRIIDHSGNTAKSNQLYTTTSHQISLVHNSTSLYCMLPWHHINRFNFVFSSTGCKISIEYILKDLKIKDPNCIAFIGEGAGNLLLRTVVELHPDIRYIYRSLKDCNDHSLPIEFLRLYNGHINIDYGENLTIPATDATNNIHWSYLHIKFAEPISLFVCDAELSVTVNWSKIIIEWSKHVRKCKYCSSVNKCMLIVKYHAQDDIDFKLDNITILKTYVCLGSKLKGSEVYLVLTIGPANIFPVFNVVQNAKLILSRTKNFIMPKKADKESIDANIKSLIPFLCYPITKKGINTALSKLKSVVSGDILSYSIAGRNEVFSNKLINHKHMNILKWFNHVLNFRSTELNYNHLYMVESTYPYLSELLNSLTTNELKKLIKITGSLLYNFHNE
Chain of recombinant RSV complex (P03421 whole entry, further chain): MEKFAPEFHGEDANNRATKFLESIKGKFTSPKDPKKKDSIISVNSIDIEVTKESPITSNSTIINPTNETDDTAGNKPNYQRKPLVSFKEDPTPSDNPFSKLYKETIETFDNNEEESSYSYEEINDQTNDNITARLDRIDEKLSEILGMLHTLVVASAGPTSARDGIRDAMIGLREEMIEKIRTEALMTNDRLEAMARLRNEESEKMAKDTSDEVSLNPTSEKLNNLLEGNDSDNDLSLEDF
Summary of the method: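 10 nM recombinant RSV polymerase complex in Tris-HCl pH 7.5, 6 mM MgCl2 with RNA oligonucleotide template and radionucleotides, incubated 2 h at 30 °C with increasing inhibitor concentrations. Reaction stopped with EDTA; radiolabeled RNA product counted by scintillation.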

[3] = tested on: Respiratory Syncytial Virus (RSV) long strain; test: microbe, parasite or virus in culture; format: cell-based; settings: human respiratory syncytial virus, Tables A and B list compounds by EC50 band
Summary of the method: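 HEp-2 cells infected with 100 TCID50 virus per well, compounds in duplicate, 9-point 1/3 dilutions from 100 μM or 1 μM, 1% DMSO. After 5 days at 37 °C, cell viability (CPE protection) read by CCK-8 absorbance at 450 nm, 630 nm background.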

[4] = tested on: RSV replicon; test: microbe, parasite or virus in culture; format: cell-based; settings: human respiratory syncytial virus, read-out: EC50, the concentration of the drug required for reducing RSV replicon RNA by 50%
Experimental: The Renilla Luciferase Assay System (Promega, Cat. #E2820) was used to measure anti-RSV replicon activity. […] Luminescence was recorded using a Perkin Elmer multilabel counter Victor3V. EC50, the concentration of the drug required for reducing RSV replicon RNA by 50% in relation to the untreated cell control value, was calculated from the plot of percentage reductions of the optical density (OD) value against the drug concentrations using the Microsoft Excel forecast function.

[5] = 50% cytotoxicity concentration (CC50)
[6] = HEp-2, 120 h, read-out: 50% effective concentration (EC50), HEp-2 cells infected with RSV long strain, 5 days, CCK-8 readout
[7] = 120 h, read-out: 50% effective concentration (EC50), HEp-2 cells infected with RSV long strain, 5 days, CCK-8 readout

Compound	CC50 at 5 days [1, 5] [nM]	IC50 [2] [nM]	EC50 [3, 6] [nM]	EC50 [4] [nM]	EC50 [3, 7] [nM]	IC50 ([2]; read-out: IC50 (compound concentration at which the enzyme-catalyzed rate was reduced by 50%), 10 nM recombinant RSV complex, 2 h at 30° C., Tables E, F and G list compounds by IC50 band) [nM]	CC50 at 5 days ([1]; no virus, 5 days, CCK-8 readout, Tables C and D list compounds by CC50 band) [nM]
COc1cc(C(=O)NCC(O)(c2cc(C(C)(C)N)cc(-c3ccc(F)c(Cl)c3)n2)C(F)(F)F)ccc1OC[C@@H](C)O (stereo partly shown) [Compound 317]	10000 to 100000	< 1000	< 1000	< 1000			
CCC1(N)COc2c1cc(C(O)(CNC(=O)c1ccc(OCCO)c(OC)c1)C(F)(F)F)nc2-c1ccc(F)cc1 (stereo not shown) [Compound 530]	10000 to 100000	< 1000		< 1000	< 1000		
COc1cc(C(=O)NCC(O)(c2ccc(OC)c(-c3ccc(F)c(Cl)c3)n2)C(F)F)ccc1OC[C@@H](C)O (stereo partly shown) [Compound 444]	10000 to 100000	< 1000	< 1000	< 1000			
COc1cc(C(=O)NCC(O)(c2cc(C(C)(C)N)cc(-c3ccc(C#N)cc3)n2)C(F)(F)F)ccc1OCCO (stereo not shown) [Compound 623b]	> 100000	< 1000	< 1000	< 1000			
CCOC(=O)NC(C)(C)c1cc(-c2ccc(F)c(Cl)c2)nc(C(O)(CNC(=O)c2ccc(OC3CC3)c(OC)c2)C(F)(F)F)c1 (stereo not shown) [Compound 331]	> 100000		< 1000	< 1000		< 1000	
COc1cc(C(=O)NCC(O)(c2ccc(OC)c(-c3ccc(F)c(Cl)c3)n2)C(F)(F)F)ccc1OC1(CF)CC1 (stereo not shown) [Compound 248]	> 100000	< 1000	< 1000	< 1000			
COc1cc(C(=O)NCC(O)(c2cc(C(C)(C)NC(C)=N)cc(-c3ccc(F)c(Cl)c3)n2)C(F)(F)F)ccc1OC1CC1 (stereo not shown) [Compound 579]	10000 to 100000	< 1000	< 1000	< 1000			
COc1cc(C(=O)NCC(O)(c2cc([C@]3(C)CCN3)cc(-c3ccc(F)cc3)n2)C(F)(F)F)ccc1OCCO (stereo partly shown) [Compound 650]	10000 to 100000	< 1000		< 1000	< 1000		
COc1cc(C(=O)NCC(=O)c2cc3c(c(-c4ccc(F)c(Cl)c4)n2)OCCC3)ccc1OCCO [Compound 304]	> 100000	< 1000	< 1000	< 1000			
COc1cc(C(=O)NCC(O)(c2cc(C(C)(C)N)cc(-c3ccc(F)c(Cl)c3)n2)C(F)(F)F)ccc1OCCO (stereo not shown) [Compound 489]	10000 to 100000	< 1000	< 1000	< 1000			
COc1cc(C(=O)NCC(O)(c2cc(C(C)(C)NCCO)cc(-c3ccc(F)c(Cl)c3)n2)C(F)(F)F)ccc1OC1CC1 (stereo not shown) [Compound 502]	10000 to 100000	< 1000	< 1000	< 1000			
COc1cc(C(=O)NCC(O)(c2ccc(OC)c(-c3ccc(F)c(Cl)c3)n2)C2CC2)ccc1OCc1ncn[nH]1 (stereo not shown) [Compound 360]	10000 to 100000	< 1000		< 1000	< 1000		
COc1cc(C(=O)NCC(O)(c2cc([C@@]3(C)CCN3)cc(-c3ccc(F)c(Cl)c3)n2)C(F)(F)F)ccc1OC1CC1 (stereo partly shown) [Compound 563]	10000 to 100000	< 1000	< 1000	< 1000			
COc1ccc(C(=O)NCC(=O)c2nc(-c3csc4c(F)cccc34)c3ccccn23)cc1OC [Compound 130]	10000 to 100000	< 1000		< 1000	< 1000		
COc1cc(C(=O)NC[C@](O)(c2cc(C(C)(C)N)cc(-c3ccc(F)cc3)n2)C(F)(F)F)ccc1OC[C@@H](C)O [Compound 546]	10000 to 100000	< 1000	< 1000	< 1000			
CC#CC(O)(CNC(=O)c1ccc(OCCF)c(OC)c1)c1ccc(OC)c(-c2ccc(F)c(Cl)c2)n1 (stereo not shown) [Compound 124]	10000 to 100000	< 10000	< 1000	< 1000			
COc1cc(C(=O)NCC(O)(c2ccc(OC)c(-c3ccc(F)c(Cl)c3)n2)C2CC2)ccc1OCCF (stereo not shown) [Compound 123]	> 100000	< 1000	< 1000	< 1000			
COc1cc(C(=O)NCC(O)(c2cc(C(C)(C)N)cc(-c3ccc(C#N)cc3)n2)C(F)(F)F)ccc1OC1CC1 (stereo not shown) [Compound 527]		< 1000	< 1000	< 1000			10000 to 100000
COc1cc(C(=O)NCC(O)(c2cc3c(c(-c4ccc(Cl)cc4)n2)OCC3(C)N)C(F)(F)F)ccc1OCCO (stereo not shown) [Compound 640]	10000 to 100000	< 1000		< 1000	< 1000		
